Results as given in patent US10253052B2, “HBED-bisphosphonates, radiometal conjugates and their use as theranostic agents” (Five Eleven Pharma Inc., priority 2015, dated 2019).
“And” between values parts separate entries of the source, which are not always exact repeats. Identical values can stand only once. “Also recorded” adds a separate entry of the source.

Experiments:
[1] = In vivo biodistribution in mice; parameters: species or system normal CD-1 male mice; conditions: for bone to blood ratio / bone to muscle ratio / Biodistribution: Blood / Biodistribution: Bone / Biodistribution: Brain / Biodistribution: Heart / Biodistribution: Kidney / Biodistribution: Liver / Biodistribution: Lung / Biodistribution: Muscle / Biodistribution: Pancreas / Biodistribution: Skin / Biodistribution: Spleen: iv; for Biodistribution result in words (organ uptake, retention, excretion): normal mice after iv injection
In short: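 Normal male CD-1 mice (25-30 g) received 20-30 μCi of ^68Ga-labelled tracer or [^18F]NaF intravenously and were sacrificed at 2, 30, 60 and 120 min. Harvested organs, with tibia and femur as bone, were weighed and gamma-counted; uptake is expressed as % ID/g wet tissue.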

[2] = Micro-PET imaging in normal mice; format: in vivo, normal CD-1 male mice; conditions: 15 min scan at 60 min post-injection
Protocol: [^68Ga]1a, [^68Ga]BPAMD and [^18F]NaF were tested in normal CD-1 male mice. [^68Ga]1g was tested in PSMA expressing LNCaP tumor bearing nude mice. Mice received 300-500 uCi radiotracer through a tail vein injection. PET imaging was performed under isoflurane anaesthesia (2% isoflurane, 1.5 L/min oxygen). The microPET imaging was performed with a small animal PET (Mosaic by Phillips, USA). During PET measurements, the animals were placed in the prone position. At 60 min post injection of the radiotracer, data acquisition was performed for 15 min.

[3] = In vitro binding to hydroxyapatite; conditions: 20 mg hydroxyapatite in saline, 10 min at room temperature
In short: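 Hydroxyapatite was pre-incubated 24 h in isotonic saline, then ^68Ga-labelled compound (1 μCi) was added and incubated 10 min at room temperature. After centrifugation and two saline washes, gamma counting of supernatants and solid gave percent ^68Ga bound to hydroxyapatite.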

In the case of `O=C([O-])CN(CCN(CC(=O)[O-])Cc1cc(CCC(=O)NC(P(=O)(O)O)P(=O)(O)O)ccc1[O-])Cc1cc(CCC(=O)O)ccc1[O-].[68Ga+3]` [[^68Ga]1a], the “bone to blood ratio” value ([1]; 2 min) was 0.9, the “bone to muscle ratio” value ([1]; 2 min) was 4.8 and the “Biodistribution: Blood” value ([1]; 2 min post injection) was 9.39 ± 0.93 % dose/g. The “Biodistribution: Bone” value ([1]; 2 min post injection) was 8.60 ± 0.85 % dose/g, the “Biodistribution: Brain” value ([1]; 2 min post injection) was 0.31 ± 0.10 % dose/g and the “Biodistribution: Heart” value ([1]; 2 min post injection) was 3.28 ± 0.13 % dose/g. The “Biodistribution: Kidney” value ([1]; 2 min post injection) was 31.2 ± 1.92 % dose/g, the “Biodistribution: Liver” value ([1]; 2 min post injection) was 1.95 ± 0.15 % dose/g and the “Biodistribution: Lung” value ([1]; 2 min post injection) was 4.28 ± 0.21 % dose/g. The “Biodistribution: Muscle” value ([1]; 2 min post injection) was 1.80 ± 0.16 % dose/g, the “Biodistribution: Pancreas” value ([1]; 2 min post injection) was 1.58 ± 0.10 % dose/g and the “Biodistribution: Skin” value ([1]; 2 min post injection) was 2.18 ± 0.28 % dose/g. For the same compound, the “Biodistribution: Spleen” value ([1]; 2 min post injection) was 1.89 ± 0.20 % dose/g, the “bone to blood ratio” value ([1]; 30 min) was 36 and the “bone to muscle ratio” value ([1]; 30 min) was 96. For the same compound, the “Biodistribution: Blood” value ([1]; 30 min (0.5 hr) post injection) was 0.45 ± 0.10 % dose/g, the “Biodistribution: Bone” value ([1]; 30 min (0.5 hr) post injection) was 16.0 ± 1.22 % dose/g and the “Biodistribution: Brain” value ([1]; 30 min (0.5 hr) post injection) was 0.02 ± 0.01 % dose/g. For the same compound, the “Biodistribution: Heart” value ([1]; 30 min (0.5 hr) post injection) was 0.22 ± 0.02 % dose/g, the “Biodistribution: Kidney” value ([1]; 30 min (0.5 hr) post injection) was 1.54 ± 0.29 % dose/g and the “Biodistribution: Liver” value ([1]; 30 min (0.5 hr) post injection) was 0.32 ± 0.20 % dose/g. For the same compound, the “Biodistribution: Lung” value ([1]; 30 min (0.5 hr) post injection) was 0.38 ± 0.03 % dose/g, the “Biodistribution: Muscle” value ([1]; 30 min (0.5 hr) post injection) was 0.17 ± 0.03 % dose/g and the “Biodistribution: Pancreas” value ([1]; 30 min (0.5 hr) post injection) was 0.30 ± 0.27 % dose/g. For the same compound, the “Biodistribution: Skin” value ([1]; 30 min (0.5 hr) post injection) was 0.42 ± 0.12 % dose/g, the “Biodistribution: Spleen” value ([1]; 30 min (0.5 hr) post injection) was 0.17 ± 0.01 % dose/g and the “bone to blood ratio” value ([1]; 60 min) was 118. The “Biodistribution: Blood” value ([1]; 60 min (1 hr) post injection) was 0.20 ± 0.06 % dose/g, the “Biodistribution: Bone” value ([1]; 60 min (1 hr) post injection) was 23.5±1.4 % dose/g and 23.5 ± 1.42 % dose/g and the “Biodistribution: Brain” value ([1]; 60 min (1 hr) post injection) was 0.02 ± 0.01 % dose/g. The “Biodistribution: Heart” value ([1]; 60 min (1 hr) post injection) was 0.12 ± 0.02 % dose/g, the “Biodistribution: Kidney” value ([1]; 60 min (1 hr) post injection) was 1.63 ± 0.71 % dose/g and the “Biodistribution: Liver” value ([1]; 60 min (1 hr) post injection) was 0.17 ± 0.01 % dose/g. For the same compound, the “Biodistribution: Lung” value ([1]; 60 min (1 hr) post injection) was 0.21 ± 0.03 % dose/g, the “Biodistribution: Muscle” value ([1]; 60 min (1 hr) post injection) was 0.08 ± 0.02 % dose/g and the “Biodistribution: Pancreas” value ([1]; 60 min (1 hr) post injection) was 0.09 ± 0.02 % dose/g. For the same compound, the “Biodistribution: Skin” value ([1]; 60 min (1 hr) post injection) was 0.19 ± 0.05 % dose/g, the “Biodistribution: Spleen” value ([1]; 60 min (1 hr) post injection) was 0.10 ± 0.02 % dose/g and the “bone to blood ratio” value ([1]; 120 min) was 320. The “bone to muscle ratio” value ([1]; 120 min) was 447, the “Biodistribution: Blood” value ([1]; 120 min post injection) was 0.07 ± 0.03 % dose/g and the “Biodistribution: Bone” value ([1]; 120 min post injection) was 23.9 ± 1.99 % dose/g. For the same compound, the “Biodistribution: Brain” value ([1]; 120 min post injection) was 0.01 ± 0.00 % dose/g, the “Biodistribution: Heart” value ([1]; 120 min post injection) was 0.07 ± 0.01 % dose/g and the “Biodistribution: Kidney” value ([1]; 120 min post injection) was 0.92 ± 0.10 % dose/g. The “Biodistribution: Liver” value ([1]; 120 min post injection) was 0.14 ± 0.02 % dose/g, the “Biodistribution: Lung” value ([1]; 120 min post injection) was 0.12 ± 0.03 % dose/g and the “Biodistribution: Muscle” value ([1]; 120 min post injection) was 0.05 ± 0.01 % dose/g. The “Biodistribution: Pancreas” value ([1]; 120 min post injection) was 0.05 ± 0.01 % dose/g, the “Biodistribution: Skin” value ([1]; 120 min post injection) was 0.13 ± 0.03 % dose/g and the “Biodistribution: Spleen” value ([1]; 120 min post injection) was 0.09 ± 0.03 % dose/g. For the same compound, the “Biodistribution result in words (organ uptake, retention, excretion)” value [1] was “excellent bone uptake and fast kidney excretion; also recorded: excellent bone uptake and retention”, the “Micro-PET localization (in words)” value [2] was “localized in the spines of mice” and the “Hydroxyapatite Binding (%)” value [3] was 92.3 ± 1.1%.

For `O=C(O)CN1CCN(CC(=O)O)CCN(CC(=O)NC(P(=O)(O)O)P(=O)(O)O)CCN(CC(=O)O)CC1.[68Ga]` [[^68Ga]BPAMD, reference compound], the “bone to blood ratio” value ([1]; 2 min) was 0.8, the “bone to muscle ratio” value ([1]; 2 min) was 4.3 and the “Biodistribution: Blood” value ([1]; 2 min post injection) was 9.45 ± 0.55 % dose/g. The “Biodistribution: Bone” value ([1]; 2 min post injection) was 7.07 ± 0.94 % dose/g, the “Biodistribution: Brain” value ([1]; 2 min post injection) was 0.26 ± 0.01 % dose/g and the “Biodistribution: Heart” value ([1]; 2 min post injection) was 2.74 ± 0.23 % dose/g. The “Biodistribution: Kidney” value ([1]; 2 min post injection) was 22.1 ± 8.80 % dose/g, the “Biodistribution: Liver” value ([1]; 2 min post injection) was 1.92 ± 0.31 % dose/g and the “Biodistribution: Lung” value ([1]; 2 min post injection) was 4.58 ± 0.36 % dose/g. For the same compound, the “Biodistribution: Muscle” value ([1]; 2 min post injection) was 1.63 ± 0.35 % dose/g, the “Biodistribution: Pancreas” value ([1]; 2 min post injection) was 1.73 ± 0.11 % dose/g and the “Biodistribution: Skin” value ([1]; 2 min post injection) was 2.57 ± 0.53 % dose/g. The “Biodistribution: Spleen” value ([1]; 2 min post injection) was 1.90 ± 0.14 % dose/g, the “bone to blood ratio” value ([1]; 30 min) was 10 and the “bone to muscle ratio” value ([1]; 30 min) was 19. For the same compound, the “Biodistribution: Blood” value ([1]; 30 min (0.5 hr) post injection) was 1.02 ± 0.19 % dose/g, the “Biodistribution: Bone” value ([1]; 30 min (0.5 hr) post injection) was 10.5 ± 0.6 % dose/g and the “Biodistribution: Brain” value ([1]; 30 min (0.5 hr) post injection) was 0.06 ± 0.02 % dose/g. The “Biodistribution: Heart” value ([1]; 30 min (0.5 hr) post injection) was 0.29 ± 0.02 % dose/g, the “Biodistribution: Kidney” value ([1]; 30 min (0.5 hr) post injection) was 1.46 ± 0.19 % dose/g and the “Biodistribution: Liver” value ([1]; 30 min (0.5 hr) post injection) was 0.22 ± 0.02 % dose/g. For the same compound, the “Biodistribution: Lung” value ([1]; 30 min (0.5 hr) post injection) was 0.50 ± 0.16 % dose/g, the “Biodistribution: Muscle” value ([1]; 30 min (0.5 hr) post injection) was 0.55 ± 0.11 % dose/g and the “Biodistribution: Pancreas” value ([1]; 30 min (0.5 hr) post injection) was 0.27 ± 0.14 % dose/g. The “Biodistribution: Skin” value ([1]; 30 min (0.5 hr) post injection) was 0.39 ± 0.15 % dose/g, the “Biodistribution: Spleen” value ([1]; 30 min (0.5 hr) post injection) was 0.22 ± 0.14 % dose/g and the “bone to blood ratio” value ([1]; 60 min) was 10. The “bone to muscle ratio” value ([1]; 60 min) was 30, the “Biodistribution: Blood” value ([1]; 60 min (1 hr) post injection) was 0.93 ± 0.06 % dose/g and the “Biodistribution: Bone” value ([1]; 60 min (1 hr) post injection) was 9.21 ± 0.90 % dose/g. For the same compound, the “Biodistribution: Brain” value ([1]; 60 min (1 hr) post injection) was 0.04 ± 0.00 % dose/g, the “Biodistribution: Heart” value ([1]; 60 min (1 hr) post injection) was 0.37 ± 0.06 % dose/g and the “Biodistribution: Kidney” value ([1]; 60 min (1 hr) post injection) was 2.88 ± 1.51 % dose/g. For the same compound, the “Biodistribution: Liver” value ([1]; 60 min (1 hr) post injection) was 0.25 ± 0.03 % dose/g, the “Biodistribution: Lung” value ([1]; 60 min (1 hr) post injection) was 0.51 ± 0.09 % dose/g and the “Biodistribution: Muscle” value ([1]; 60 min (1 hr) post injection) was 0.31 ± 0.04 % dose/g. For the same compound, the “Biodistribution: Pancreas” value ([1]; 60 min (1 hr) post injection) was 0.30 ± 0.02 % dose/g, the “Biodistribution: Skin” value ([1]; 60 min (1 hr) post injection) was 0.60 ± 0.08 % dose/g and the “Biodistribution: Spleen” value ([1]; 60 min (1 hr) post injection) was 0.21 ± 0.02 % dose/g. The “bone to blood ratio” value ([1]; 120 min) was 11, the “bone to muscle ratio” value ([1]; 120 min) was 33 and the “Biodistribution: Blood” value ([1]; 120 min post injection) was 0.90 ± 0.41 % dose/g. For the same compound, the “Biodistribution: Bone” value ([1]; 120 min post injection) was 9.62 ± 0.71 % dose/g, the “Biodistribution: Brain” value ([1]; 120 min post injection) was 0.03 ± 0.01 % dose/g and the “Biodistribution: Heart” value ([1]; 120 min post injection) was 0.26 ± 0.07 % dose/g. The “Biodistribution: Kidney” value ([1]; 120 min post injection) was 1.09 ± 0.26 % dose/g, the “Biodistribution: Liver” value ([1]; 120 min post injection) was 0.31 ± 0.11 % dose/g and the “Biodistribution: Lung” value ([1]; 120 min post injection) was 0.45 ± 0.10 % dose/g. The “Biodistribution: Muscle” value ([1]; 120 min post injection) was 0.29 ± 0.06 % dose/g, the “Biodistribution: Pancreas” value ([1]; 120 min post injection) was 0.33 ± 0.07 % dose/g and the “Biodistribution: Skin” value ([1]; 120 min post injection) was 0.55 ± 0.04 % dose/g. The “Biodistribution: Spleen” value ([1]; 120 min post injection) was 0.25 ± 0.08 % dose/g, the “Biodistribution result in words (organ uptake, retention, excretion)” value [1] was “less bone uptake and retention” and the “Micro-PET localization (in words)” value [2] was “localized in the spines of mice”. For the same compound, the “Hydroxyapatite Binding (%)” value [3] was 90.6 ± 6.0%.
